From US9808003B2, “Herbicidally active 2-(substituted-phenyl)-cyclopentane-1,3-dione compounds and derivatives thereof” (Syngenta Limited, priority 2013, dated 2017)

Experiments:
Format in all cases: in vivo
[1] = tested on: Lolium multiflorum (LOLMU); experiment: Test 1B glasshouse assay, post-emergence herbicidal activity against grassy weeds; conditions: 14 DAA
Method in brief: (§1)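 Herbicide applied post-emergence at rates such as 60 g/ha (±50 g/ha cloquintocet-mexyl) or 90 and 120 g/ha (with safener), rates varying per compound. Plants kept at 22/16 °C, watered twice daily; percentage phytotoxicity scored visually after 14 days.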

[2] = tested on: Setaria viridis (SETVI); experiment: as above; conditions: 14 DAA
Method in brief: as §1

[3] = tested on: Poa annua (POAAN); experiment: as above; conditions: 14 DAA
Method in brief: as §1

[4] = tested on: Alopecurus myosuroides (ALOMY); experiment: as above; conditions: 14 DAA
Method in brief: as §1

[5] = tested on: Avena fatua (AVEFA); experiment: as above; conditions: 14 DAA
Method in brief: as §1

[6] = tested on: grassy monocotyledonous weeds; experiment: Test 1B glasshouse assay, post-emergence, comparison of separated enantiomers, weeds overall; conditions: chiral-column-separated enantiomers, A98 vs A99 and A100 vs A101, Biological Example 1B
Procedure: Biological Example 1B tests the herbicidal activity of“technical” compounds (i.e. compounds not previously formulated before the test), as the herbicides under test.
An “instant formulation”, known as the “IF50”, containing 50 g/liter (i.e. 5% w/v) of the “technical” (i.e. unformulated) active ingredient (i.e. the herbicide under test), is prepared by dissolving the active ingredient in a mixture of organic solvents and emulsifier, details of which are provided in the Table below. […]
The test plants are then grown on under controlled conditions in the glasshouse (at 22/16° C., day/night; 16 hours light; 65% humidity) and are watered twice daily. 14 days after application of the test herbicide, the test is evaluated visually for percentage phytotoxicity to the plant (where 100%=total damage to plant; 0%=no damage to plant). […]
Herbicidal activity (phytotoxicity) is evaluated visually, and an assessed percentage phytotoxicity score is given for each herbicidal application on each plant species (with 100%=total damage to plant; 0%=no damage to plant; the assessment is recorded in increments of 1%). […]

[7] = tested on: Spring Wheat “Teal”; experiment: Test 1B glasshouse assay, post-emergence herbicidal activity against cereal crops; conditions: 14 DAA
Method in brief: (§2)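 Visual percentage damage (100% = total, 0% = none) read 14 days after application, averaged over two replicates. Plants grown 14 days at 22/16 °C day/night before post-emergence spraying of unformulated compound (IF50/acetone, 0.5% v/v Adigor). Rates usually 60–120 g/ha; cloquintocet-mexyl 50 g/ha co-applied where stated.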

[8] = tested on: Winter Wheat “Hereward”; experiment: as above; conditions: 14 DAA
Method in brief: as §2

[9] = tested on: Spring Barley “Harrington”; experiment: as above; conditions: 14 DAA
Method in brief: as §2

[10] = tested on: Winter Barley “Suzuka”; experiment: as above; conditions: 14 DAA
Method in brief: as §2

[11] = 60 g/ha herbicide, 0 g/ha cloquintocet-mexyl, test result no. 1 (T1)
[12] = 60 g/ha herbicide, 50 g/ha cloquintocet-mexyl, test result no. 1 (T1)
[13] = 60 g/ha herbicide, 50 g/ha cloquintocet-mexyl, test result no. 2 (T2)
[14] = 90 g/ha herbicide, 50 g/ha cloquintocet-mexyl, test result no. 2 (T2)
[15] = 120 g/ha herbicide, 50 g/ha cloquintocet-mexyl, test result no. 2 (T2)
[16] = 30 g/ha herbicide, 50 g/ha cloquintocet-mexyl
[17] = 45 g/ha herbicide, 50 g/ha cloquintocet-mexyl
[18] = 60 g/ha herbicide, 0 g/ha cloquintocet-mexyl
[19] = 60 g/ha herbicide, 50 g/ha cloquintocet-mexyl

Structure (SMILES): Cc1cc(-n2cc(Cl)cn2)cc(C)c1C1C(=O)C[C@@H](CCNC(=O)c2ccccn2)C1=O (stereo partly drawn) [Compound A98, N-[2-[(1R)-3-[4-(4-chloropyrazol-1-yl)-2,6-dimethyl-phenyl]-2,4-dioxo-cyclopentyl]ethyl]pyridine-2-carboxamide]
- Post-emergence herbicidal activity, percentage phytotoxicity, LOLMU [1, 11]: 95 (T1) %
- Post-emergence herbicidal activity, percentage phytotoxicity, LOLMU [1, 12]: 95 (T1); %
- Post-emergence herbicidal activity, percentage phytotoxicity, LOLMU [1, 13]: 100 (T2) %
- Post-emergence herbicidal activity, percentage phytotoxicity, LOLMU [1, 14]: 100 (T2) %
- Post-emergence herbicidal activity, percentage phytotoxicity, LOLMU [1, 15]: 100 (T2) %
- Post-emergence herbicidal activity, percentage phytotoxicity, SETVI [2, 11]: 94 (T1) %
- Post-emergence herbicidal activity, percentage phytotoxicity, SETVI [2, 12]: 97 (T1); %
- Post-emergence herbicidal activity, percentage phytotoxicity, SETVI [2, 13]: 100 (T2) %
- Post-emergence herbicidal activity, percentage phytotoxicity, SETVI [2, 14]: 100 (T2) %
- Post-emergence herbicidal activity, percentage phytotoxicity, SETVI [2, 15]: 100 (T2) %
- Post-emergence herbicidal activity, percentage phytotoxicity, POAAN [3, 11]: 78 (T1) %
- Post-emergence herbicidal activity, percentage phytotoxicity, POAAN [3, 12]: 75 (T1); %
- Post-emergence herbicidal activity, percentage phytotoxicity, POAAN [3, 13]: 75 (T2) %
- Post-emergence herbicidal activity, percentage phytotoxicity, POAAN [3, 14]: 78 (T2) %
- Post-emergence herbicidal activity, percentage phytotoxicity, POAAN [3, 15]: 83 (T2) %
- Post-emergence herbicidal activity, percentage phytotoxicity, ALOMY [4, 11]: 80 (T1) %
- Post-emergence herbicidal activity, percentage phytotoxicity, ALOMY [4, 12]: 80 (T1); %
- Post-emergence herbicidal activity, percentage phytotoxicity, ALOMY [4, 13]: 78 (T2) %
- Post-emergence herbicidal activity, percentage phytotoxicity, ALOMY [4, 14]: 88 (T2) %
- Post-emergence herbicidal activity, percentage phytotoxicity, ALOMY [4, 15]: 97 (T2) %
- Post-emergence herbicidal activity, percentage phytotoxicity, AVEFA [5, 11]: 100 (T1) %
- Post-emergence herbicidal activity, percentage phytotoxicity, AVEFA [5, 12]: 100 (T1); %
- Post-emergence herbicidal activity, percentage phytotoxicity, AVEFA [5, 13]: 100 (T2) %
- Post-emergence herbicidal activity, percentage phytotoxicity, AVEFA [5, 14]: 100 (T2) %
- Post-emergence herbicidal activity, percentage phytotoxicity, AVEFA [5, 15]: 100 (T2) %
- herbicidal activity against grassy monocotyledonous weeds compared with the compound of opposite stereochemistry [6]: more potent herbicidal activity
- Post-emergence herbicidal activity against cereal crops, percentage phytotoxicity, Spring Wheat “Teal” [7, 11]: 30 (T1) %
- Post-emergence herbicidal activity against cereal crops, percentage phytotoxicity, Spring Wheat “Teal” [7, 12]: 10 (T1); %
- Post-emergence herbicidal activity against cereal crops, percentage phytotoxicity, Spring Wheat “Teal” [7, 13]: 5 (T2) %
- Post-emergence herbicidal activity against cereal crops, percentage phytotoxicity, Spring Wheat “Teal” [7, 14]: 13 (T2) %
- Post-emergence herbicidal activity against cereal crops, percentage phytotoxicity, Spring Wheat “Teal” [7, 15]: 20 (T2) %
- Post-emergence herbicidal activity against cereal crops, percentage phytotoxicity, Winter Wheat “Hereward” [8, 11]: 35 (T1) %
- Post-emergence herbicidal activity against cereal crops, percentage phytotoxicity, Winter Wheat “Hereward” [8, 12]: 13 (T1); %
- Post-emergence herbicidal activity against cereal crops, percentage phytotoxicity, Winter Wheat “Hereward” [8, 13]: 9 (T2) %
- Post-emergence herbicidal activity against cereal crops, percentage phytotoxicity, Winter Wheat “Hereward” [8, 14]: 13 (T2) %
- Post-emergence herbicidal activity against cereal crops, percentage phytotoxicity, Winter Wheat “Hereward” [8, 15]: 23 (T2) %
- Post-emergence herbicidal activity against cereal crops, percentage phytotoxicity, Spring Barley “Harrington” [9, 11]: 33 (T1) %
- Post-emergence herbicidal activity against cereal crops, percentage phytotoxicity, Spring Barley “Harrington” [9, 12]: 10 (T1); %
- Post-emergence herbicidal activity against cereal crops, percentage phytotoxicity, Spring Barley “Harrington” [9, 13]: 4 (T2) %
- Post-emergence herbicidal activity against cereal crops, percentage phytotoxicity, Spring Barley “Harrington” [9, 14]: 5 (T2) %
- Post-emergence herbicidal activity against cereal crops, percentage phytotoxicity, Spring Barley “Harrington” [9, 15]: 15 (T2) %
- Post-emergence herbicidal activity against cereal crops, percentage phytotoxicity, Winter Barley “Suzuka” [10, 11]: 75 (T1) %
- Post-emergence herbicidal activity against cereal crops, percentage phytotoxicity, Winter Barley “Suzuka” [10, 12]: 13 (T1); %
- Post-emergence herbicidal activity against cereal crops, percentage phytotoxicity, Winter Barley “Suzuka” [10, 13]: 8 (T2) %
- Post-emergence herbicidal activity against cereal crops, percentage phytotoxicity, Winter Barley “Suzuka” [10, 14]: 9 (T2) %
- Post-emergence herbicidal activity against cereal crops, percentage phytotoxicity, Winter Barley “Suzuka” [10, 15]: 40 (T2) %

Structure (SMILES): CCc1cc(-n2cc(Cl)cn2)cc(C)c1C1C(=O)C[C@@H](CCNC(=O)c2ccccn2)C1=O (some centres unmarked) [Compound A100]
- Post-emergence herbicidal activity, percentage phytotoxicity, LOLMU [1, 16]: 100%
- Post-emergence herbicidal activity, percentage phytotoxicity, LOLMU [1, 17]: 100%
- Post-emergence herbicidal activity, percentage phytotoxicity, LOLMU [1, 18]: 100%
- Post-emergence herbicidal activity, percentage phytotoxicity, LOLMU [1, 19]: 100%
- Post-emergence herbicidal activity, percentage phytotoxicity, SETVI [2, 16]: 95%
- Post-emergence herbicidal activity, percentage phytotoxicity, SETVI [2, 17]: 99%
- Post-emergence herbicidal activity, percentage phytotoxicity, SETVI [2, 18]: 99%
- Post-emergence herbicidal activity, percentage phytotoxicity, SETVI [2, 19]: 99%
- Post-emergence herbicidal activity, percentage phytotoxicity, POAAN [3, 16]: 73%
- Post-emergence herbicidal activity, percentage phytotoxicity, POAAN [3, 17]: 78%
- Post-emergence herbicidal activity, percentage phytotoxicity, POAAN [3, 18]: 80%
- Post-emergence herbicidal activity, percentage phytotoxicity, POAAN [3, 19]: 78%
- Post-emergence herbicidal activity, percentage phytotoxicity, ALOMY [4, 16]: 55%
- Post-emergence herbicidal activity, percentage phytotoxicity, ALOMY [4, 17]: 75%
- Post-emergence herbicidal activity, percentage phytotoxicity, ALOMY [4, 18]: 83%
- Post-emergence herbicidal activity, percentage phytotoxicity, ALOMY [4, 19]: 78%
- Post-emergence herbicidal activity, percentage phytotoxicity, AVEFA [5, 16]: 100%
- Post-emergence herbicidal activity, percentage phytotoxicity, AVEFA [5, 17]: 100%
- Post-emergence herbicidal activity, percentage phytotoxicity, AVEFA [5, 18]: 100%
- Post-emergence herbicidal activity, percentage phytotoxicity, AVEFA [5, 19]: 100%
- herbicidal activity against grassy monocotyledonous weeds compared with the compound of opposite stereochemistry [6]: more potent herbicidal activity
- Post-emergence herbicidal activity against cereal crops, percentage phytotoxicity, Spring Wheat “Teal” [7, 16]: 20%
- Post-emergence herbicidal activity against cereal crops, percentage phytotoxicity, Spring Wheat “Teal” [7, 17]: 30%
- Post-emergence herbicidal activity against cereal crops, percentage phytotoxicity, Spring Wheat “Teal” [7, 18]: 65%
- Post-emergence herbicidal activity against cereal crops, percentage phytotoxicity, Spring Wheat “Teal” [7, 19]: 45%
- Post-emergence herbicidal activity against cereal crops, percentage phytotoxicity, Winter Wheat “Hereward” [8, 16]: 15%
- Post-emergence herbicidal activity against cereal crops, percentage phytotoxicity, Winter Wheat “Hereward” [8, 17]: 30%
- Post-emergence herbicidal activity against cereal crops, percentage phytotoxicity, Winter Wheat “Hereward” [8, 18]: 60%
- Post-emergence herbicidal activity against cereal crops, percentage phytotoxicity, Winter Wheat “Hereward” [8, 19]: 40%
- Post-emergence herbicidal activity against cereal crops, percentage phytotoxicity, Spring Barley “Harrington” [9, 16]: 13%
- Post-emergence herbicidal activity against cereal crops, percentage phytotoxicity, Spring Barley “Harrington” [9, 17]: 18%
- Post-emergence herbicidal activity against cereal crops, percentage phytotoxicity, Spring Barley “Harrington” [9, 18]: 83%
- Post-emergence herbicidal activity against cereal crops, percentage phytotoxicity, Spring Barley “Harrington” [9, 19]: 28%
- Post-emergence herbicidal activity against cereal crops, percentage phytotoxicity, Winter Barley “Suzuka” [10, 16]: 10%
- Post-emergence herbicidal activity against cereal crops, percentage phytotoxicity, Winter Barley “Suzuka” [10, 17]: 30%
- Post-emergence herbicidal activity against cereal crops, percentage phytotoxicity, Winter Barley “Suzuka” [10, 18]: 93%
- Post-emergence herbicidal activity against cereal crops, percentage phytotoxicity, Winter Barley “Suzuka” [10, 19]: 53%
